According to patent US20070232615A1, “Chemical Compounds” (priority 2004, published 2007):

Each molecule was assayed on HIV (assay: HOS HIV infectivity assay (Table 2, strain not given)). Details: Human immunodeficiency virus 1, read-out: Activity Level.
Assay type: cell-based
Description: HOS HIV-1 Infectivity Assay
Compounds were profiled against two HIV-1 viruses, the M-tropic (CCR5 utilizing) Ba-L strain and the T-tropic (CXCR4 utilizing) IIIB strain. Both viruses were propagated in human peripheral blood lymphocytes. Compounds were tested for there ability to block infection of the HOS cell line (expressing hCXCR4/hCCR5/hCD4/pHIV-LTR-luciferase) by either HIV-1 Ba-L or HIV-1 IIIB. Compound cytotoxicity was also examined in the absence of virus addition.
HOS HIV-1 Infectivity Assay Format
HOS cells (expressing hCXCR4/hCCR5/hCD4/pHIV-LTR-luciferase) were harvested and diluted in Dulbeccos modified Eagles media supplemented with 2% FCS and non-essential amino acid to a concentration of 60,000 cells/ml. The cells were plated into 96-well plates (100 ul per well) and the plates were placed in a tissue culture incubator (37° C.; 5% CO2/95% air) for a period of 24 h.
Subsequently, 50 ul of the desired drug solution (4 times the final concentration) was added to each well and the plates were returned to the tissue culture incubator (37° C.; 5% CO2/95% air) for 1 h. Following this incubation 50 ul of diluted virus was added to each well (approximately 2 million RLU per well of virus). The plates were returned to the tissue culture incubator (37° C.; 5% CO2/95% air) and were incubated for a further 96 h.
Following this incubation the endpoint for the virally infected cultures was quantified following addition of Steady-Glo Luciferase assay system reagent (Promega, Madison, Wis.). Cell viability or non-infected cultures was measured using a CellTiter-Glo luminescent cell viability assay system (Promega, Madison, Wis.). All luminescent readouts are performed on a Topcount luminescence detector (Packard, Meridien, Conn.).

Row | SMILES | IC50 [µM]
1 | CN(Cc1cn2c(N3CC(N)C3)cccc2n1)C1CCCc2cccnc21 (centres unmarked) [Example 25, N-{[5-(3-Amino-1-azetidinyl)imidazo[1,2-a]pyridin-2-yl]methyl}-N-methyl-5,6,7,8-tetrahydro-8-quinolinamine] | < 0.1
2 | CN(C)CCN1CCN(c2cccc3nc(CN(C)C4CCCc5cccnc54)cn23)CC1 (centres unmarked) [Example 32, N-[(5-{4-[2-(Dimethylamino)ethyl]-1-piperazinyl}imidazo[1,2-a]pyridin-2-yl)methyl]-N-methyl-5,6,7,8-tetrahydro-8-quinolinamine] | 0.1 to 0.5
3 | CN(C)Cc1cccc(-c2cccc3nc(CN(C)C4CCCc5cccnc54)cn23)c1 (centres unmarked) [Example 41, N-[(5-{3-[(Dimethylamino)methyl]phenyl}imidazo[1,2-a]pyridin-2-yl)methyl]-N-methyl-5,6,7,8-tetrahydro-8-quinolinamine] | 0.1 to 0.5
4 | CN(C)Cc1ccccc1-c1cccc2nc(CN(C)C3CCCc4cccnc43)cn12 (centres unmarked) [Example 42, N-[(5-{2-[(Dimethylamino)methyl]phenyl}imidazo[1,2-a]pyridin-2-yl)methyl]-N-methyl-5,6,7,8-tetrahydro-8-quinolinamine] | 0.1 to 0.5
5 | CCN(Cc1cn2c(N3CCN(C)CC3)cccc2n1)[C@H]1CCCc2cccnc21 [Example 54, (8S)—N-Ethyl-N-{[5-(4-methyl-1-piperazinyl)imidazo[1,2-a]pyridin-2-yl]methyl}-5,6,7,8-tetrahydro-8-quinolinamine] | < 0.1
6 | CN1CCN(c2cccc3nc(CN(C)C4CCCCc5cccnc54)cn23)CC1 (centres unmarked) [Example 47, N-Methyl-N-{[5-(4-methyl-1-piperazinyl)imidazo[1,2-a]pyridin-2-yl]methyl}-6,7,8,9-tetrahydro-5H-cyclohepta[b]pyridin-9-amine] | < 0.1
7 | CN1CCN(c2cccc3nc(CN(C)C4CCc5cccnc54)cn23)CC1 (centres unmarked) [Example 46, N-Methyl-N-{[5-(4-methyl-1-piperazinyl)imidazo[1,2-a]pyridin-2-yl]methyl}-6,7-dihydro-5H-cyclopenta[b]pyridin-7-amine] | < 0.1
8 | COCCN1CCN(c2cccc3nc(CN(C)C4CCCc5cccnc54)cn23)CC1 (centres unmarked) [Example 33, N-Methyl-N-[(5-{4-[2-(methyloxy)ethyl]-1-piperazinyl}imidazo[1,2-a]pyridin-2-yl)methyl]-5,6,7,8-tetrahydro-8-quinolinamine] | < 0.1
9 | CN(Cc1cn2c(N3CCOCC3)cccc2n1)C1CCCc2cccnc21 (centres unmarked) [Example 20, N-Methyl-N-{[5-(4-morpholinyl)imidazo[1,2-a]pyridin-2-yl]methyl}-5,6,7,8-tetrahydro-8-quinolinamine] | 0.5 to 10
10 | CN(Cc1cn2c(NC(=O)c3cccnc3)cccc2n1)C1CCCc2cccnc21 (centres unmarked) [Example 44, N-(2-{[Methyl(5,6,7,8-tetrahydro-8-quinolinyl)amino]methyl}imidazo[1,2-a]pyridin-5-yl)-3-pyridinecarboxamide] | 0.5 to 10

More lines, now with the values ahead:

Row | IC50 [µM] | SMILES
11 | < 0.1 | CN(Cc1cn2c(N3CCCNCC3)cccc2n1)[C@H]1CCCc2cccnc21 [Example 84, (8S)—N-{[5-(Hexahydro-1H-1,4-diazepin-1-yl)imidazo[1,2-a]pyridin-2-yl]methyl}-N-methyl-5,6,7,8-tetrahydro-8-quinolinamine]
12 | < 0.1 | CN1CCN(c2cccc3nc(CN(Cc4cccc(F)c4)[C@H]4CCCc5cccnc54)cn23)CC1 [Example 61, (8S)—N-[(3-Fluorophenyl)methyl]-N-{[5-(4-methyl-1-piperazinyl)imidazo[1,2-a]pyridin-2-yl]methyl}-5,6,7,8-tetrahydro-8-quinolinamine]
13 | < 0.1 | CCCN(Cc1cn2c(N3CC[C@@H](N(C)C)C3)cccc2n1)[C@H]1CCCc2cccnc21 [Example 97, (8S)—N-({5-[(3R)-3-(Dimethylamino)-1-pyrrolidinyl]imidazo[1,2-a]pyridin-2-yl}methyl)-N-propyl-5,6,7,8-tetrahydro-8-quinolinamine]
14 | < 0.1 | CN(Cc1cn2c(NCCN3CCCCC3)cccc2n1)[C@H]1CCCc2cccnc21 [Example 103, (8S)—N-Methyl-N-[(5-{[2-(1-piperidinyl)ethyl]amino}imidazo[1,2-a]pyridin-2-yl)methyl]-5,6,7,8-tetrahydro-8-quinolinamine]
15 | < 0.1 | CCN(CC)[C@@H]1CCN(c2cccc3nc(CN(C)[C@H]4CCCc5cccnc54)cn23)C1 [Example 93, (8S)—N-({5-[(3R)-3-(Diethylamino)-1-pyrrolidinyl]imidazo[1,2-a]pyridin-2-yl}methyl)-N-methyl-5,6,7,8-tetrahydro-8-quinolinamine]
16 | < 0.1 | CN(Cc1cn2c(OCCN3CCCC3)cccc2n1)[C@H]1CCCc2cccnc21 [Example 105, (8S)—N-Methyl-N-[(5-{[2-(1-pyrrolidinyl)ethyl]oxy}imidazo[1,2-a]pyridin-2-yl)methyl]-5,6,7,8-tetrahydro-8-quinolinamine]
17 | < 0.1 | COc1ccc(CN(Cc2cn3c(N4CCN(C)CC4)cccc3n2)[C@H]2CCCc3cccnc32)cc1 [Example 74, (8S)—N-{[4-(Methyloxy)phenyl]methyl}-N-{[5-(4-methyl-1-piperazinyl)imidazo[1,2-a]pyridin-2-yl]methyl}-5,6,7,8-tetrahydro-8-quinolinamine]
18 | < 0.1 | CN(Cc1cn2c(NCCN3CCCC3)cccc2n1)[C@H]1CCCc2cccnc21 [Example 102, (8S)—N-Methyl-N-[(5-{[2-(1-pyrrolidinyl)ethyl]amino}imidazo[1,2-a]pyridin-2-yl)methyl]-5,6,7,8-tetrahydro-8-quinolinamine]
19 | < 0.1 | CN1CCCN(c2cccc3nc(CN(C)[C@H]4CCCc5cccnc54)cn23)CC1 [Example 85, (8S)—N-Methyl-N-{[5-(4-methylhexahydro-1H-1,4-diazepin-1-yl)imidazo[1,2-a]pyridin-2-yl]methyl}-5,6,7,8-tetrahydro-8-quinolinamine]
20 | < 0.1 | CN1CCC(N(C)c2cccc3nc(CN(C)[C@H]4CCCc5cccnc54)cn23)C1 (stereo partly drawn) [Example 86, (8S)—N-Methyl-N-({5-[methyl(1-methyl-3-pyrrolidinyl)amino]imidazo[1,2-a]pyridin-2-yl}methyl)-5,6,7,8-tetrahydro-8-quinolinamine]
21 | < 0.1 | CCN1CCN(c2cccc3nc(CN(C)[C@H]4CCCc5cccnc54)cn23)CC1 [Example 88, (8S)—N-{[5-(4-Ethyl-1-piperazinyl)imidazo[1,2-a]pyridin-2-yl]methyl}-N-methyl-5,6,7,8-tetrahydro-8-quinolinamine]
22 | < 0.1 | CN(C)CCNc1cccc2nc(CN(C)[C@H]3CCCc4cccnc43)cn12 [Example 101, N,N-Dimethyl-N′-[2-({methyl[(8S)-5,6,7,8-tetrahydro-8-quinolinyl]amino}methyl)imidazo[1,2-a]pyridin-5-yl]-1,2-ethanediamine]
23 | < 0.1 | CN(C)[C@@H]1CCN(c2cccc3nc(CN(C)[C@H]4CCCc5cccnc54)cn23)C1 [Example 83, (8S)—N-({5-[(3R)-3-(Dimethylamino)-1-pyrrolidinyl]imidazo[1,2-a]pyridin-2-yl}methyl)-N-methyl-5,6,7,8-tetrahydro-8-quinolinamine]
